Results from US10711313B2, “Kit for detecting ctDNA and expression of drug-resistant genes related to applicability of tumor chemotherapeutic drugs” (GUIZHOU MEDICAL UNIVERSITY, priority 2018, dated 2020).

Experiments:
[1] = Fluorescence in water, ethanol and acetone (aggregation-induced luminescence); type: physicochemical
Experimental: Fluorescence spectra were measured on a Perkin Elmer LS95, HITACH F-4500, and Edinburgh FLS920 fluorescence spectrometers at room temperature with laterally collection of fluorescence. Fluorescence lifetime was measured using the Edinburgh FLS920 fluorescence spectrometer. Two-photon fluorescence utilized laser pulses emitted by a Ti: sapphire Mira900-F mode-locked laser as the irradiation light source with a repetition frequency of 76 MHz and a pulse width of 200 fs using the SpectroPro 300i spectrometer to collect fluorescence laterally. […] All the test utilized 1.0 cm×1.0 cm Quartet pass quartz crystal cuvette. Reagents used to prepare solutions are either spectroscopic or chromatographic purified.
It can be seen that the fluorescence intensity of BHVC in aqueous solution is very weak and the fluorescence emission peak is at 627 nm. However, the fluorescence intensity in ethanol solution with the same concentration of BHVC increases by 30 times, and the fluorescence emission peak red-shifted to 631 nm. In fact, ethanol is a poor solvent for BHVC. Therefore, BHVC exists in the form of aggregates in ethanol solvent.

[2] = UV-Vis absorption of aqueous solutions at different concentrations (solubility); type: physicochemical; settings: 10^-6 to 10^-4 mol/L, no shift of UV absorption spectrum
Description: The UV-vis absorption spectra of aqueous solutions of different concentrations of BHVC are shown in FIG. 1, the absorption peak at […] is derived from the absorption of the two cross-shaped skeletons of BHVC, and the absorption peak at […] is the characteristic absorption peak of tetraphenylethylene group. When the concentration of BHVC in aqueous solution changed from 10^−6 mol/L to 10^−4 mol/L, there was no red-shift or blue-shift of the UV absorption spectrum of the solution. In general, the shift of the absorption peak of the π-conjugated chromophore solution is due to the π-π interaction between the molecules.

[3] = test system: ctDNA; assay: ctDNA detection by fluorescence of the probe in Tris-HCl/KCl buffer pH 7.2; type: binding
Experimental: First, a buffer solution of pH 7.2 is prepared, the preparation process of which is as follows: 394 mg of Tris-HCl and 1.863 g of KCl are added to a 250 ml beaker, and deionized water is added to prepare a buffer solution containing 10 mmol/L Tris-HCl and 100 mmol/L KCl and of pH 7.2 buffer solution.
Then, the buffer solution was used to prepare 0-500 μg/ml ctDNA aqueous solutions, wherein the BHVC content was maintained at 5×10^−6 mol/L.
Taking deionized water solution with ctDNA content of 100 μg/ml as an example, the specific preparation process is described as follows: First, […] compound BHVC was added to a 100 ml volumetric flask, followed by the addition of 100 ml pH 7.2 buffer solution to formulate to a BHVC buffer solution of concentration of 10^−4 mol/L, then 1 ml the above solution was removed to dilute to 10 ml so that the concentration of BHVC was 10^−5 mol/L, 5 ml of this solution was taken and added to a clean spawn bottle.
Then […] ctDNA was taken and added to 10 ml volumetric flask, buffer was added to formulate as 100 μg/ml ctDNA solution, 1 ml this solution was taken, and then added to 4 ml buffer solution, the ctDNA concentration is diluted to 20 μg/ml, the ctDNA solution was added dropwise to the BHVC buffer solution previously placed in the spawn bottle under vigorous stirring. After the addition was completed, the ctDNA solution was allowed to stand still for 2 hours and its UV-Vis absorption and fluorescence spectra were measured.
Based on the study of the absorption and aggregation-induced luminescence properties of BHVC, the fluorescence occurrence behavior of BHVC buffer solution with different ctDNA concentrations was studied with a buffer solution of pH 7.2 and containing 10 mmol/L Tris-HCl and 100 mmol/L KCl, the changes in the detected fluorescence spectrum are shown in FIG. 3 (a). It can be seen from the figure: as the ctDNA concentration increases, the fluorescence intensity of the solution gradually increases, and the fluorescence peak is blue-shifted. When the content of ctDNA changed from 0 μg/ml to 50 μg/ml, the maximum emission peak of fluorescence spectrum shifted from 633 nm to 598 nm, that is blue shifted […]. When the ctDNA concentration was more than 50 μg/ml, the blue shift of the peak of the fluorescence spectrum appeared inflection point, the rate of change slowed down. When the ctDNA content was 500 μg/ml, the peak shifted to 576 nm, which was a blue shift of […] relative to the fluorescence spectrum of a 50 μg/ml DNA solution (FIG. 3 (b)).
The trend in the change of fluorescence intensity of the solution is shown in FIG. 4 (A), with the ctDNA concentration increases, the fluorescence intensity of the solution can be divided into two intervals. […]

increase of fluorescence intensity in ethanol versus aqueous solution ([1]; 10^-5 mol/L, excitation 420 nm): 30 times | solvent quality of ethanol for the probe ([1]; ethanol, exists as aggregates): poor solvent | solubility in aqueous solution [2]: good solubility
Structure (SMILES): CCn1c2cc(/C=C/c3cc[n+](C)cc3)ccc2c2ccc(/C=C/c3cc[n+](C)cc3)cc21.[I-].[I-] [BHVC, 2,7-bis (1-methyl-4-vinylpyridine)-9-ethylcarbazole iodised salt]
Stern-Volmer constant Ksv ([3]; ctDNA 0-50 μg/ml linear interval, I/I0=Ksv[Q]+1, excitation 420 nm): 1.4×10^2 | blue shift of emission peak (to 576 nm) relative to 50 μg/ml DNA solution ([3]; ctDNA 500 μg/ml): 24 nm | increase of fluorescence intensity relative to 0 μg/ml ctDNA ([3]; ctDNA 500 μg/ml, BHVC 5×10^-6 mol/L): 20 fold | blue shift of maximum emission peak (633 nm to 598 nm) ([3]; ctDNA from 0 μg/ml to 50 μg/ml): 35 nm
